Reference: patent US8232407B2, “Nitrogenous heterocyclic compounds with insecticidal activity, and the preparation and use thereof” (East China University of Science and Technology, priority 2008, dated 2012)

Assays:
Assay type in all cases: in vivo
Aphis craccivoral = assay: Insecticidal activities to aphids, immersion method
In short: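 Wingless adult aphids feeding on bean sprouts were dipped 5 s in 500 ppm compound (DMF stock diluted in 0.2 mL/L aqueous Triton X-100), blotted and held at 23° C. Dead counted at 24 h, three replicates; mortality corrected against Triton-only controls.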

Nilaparvata lugens = assay: Insecticidal activities to plant hopper, spraying method
In short: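 Nilaparvata lugens, 10 insects per tumbler, sprayed with 2 ml compound in acetone at 0.79-500 ppm, three replicates, aqueous acetone control. Dead insects counted after 24 h; mortality corrected against control survival.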

[1] = tested on: Pseudaletia separate Walker; assay: Insecticidal activities to armyworm, leaf dipping and feeding
In short: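 Maize leaves dipped 3 s in acetone-formulated compound at 500 down to 1.57 ppm, dried and fed to armyworms, 10 insects per treatment in triplicate, aqueous acetone as control. Mortality was counted after 24 hours and corrected against control survival.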

Plutella xylostella = assay: Insecticidal activities to diamondback moth, feeding dipped leaves
In short: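 Leaf-dip feeding assay: fresh cabbage leaves dipped 3 s in test solution, air-dried and fed to Plutella xylostella, 10 insects per treatment, three replicates, water control. Deaths counted after 24 h; mortality corrected against survival in the control group.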

`O=[N+]([O-])C(=Cc1ccc(CO)o1)C1=NCCCN1Cc1ccc(Cl)nc1` [Compound 60] was tested, and the “Aphis craccivoral Mortality (%) 500 ppm” value (Aphis craccivoral; in vivo) was 47%, the “Nilaparvata lugens Mortality (%) 500 ppm” value (Nilaparvata lugens; in vivo) was 56% and the “Pseudaletia separate Walker Mortality (%) 500 ppm” value ([1]; in vivo) was 84%. For the same molecule, the “Plutella xylostella Mortality (%) 500 ppm” value (Plutella xylostella; in vivo) was 100%.

For `C[N+]1=C(C(=Cc2ccc(Cl)o2)[N+](=O)[O-])N(Cc2ccc(Cl)nc2)CC1.[Cl-]` [Compound 247], the “Aphis craccivoral Mortality (%) 500 ppm” value (Aphis craccivoral; in vivo) was 100%, the “Nilaparvata lugens Mortality (%) 500 ppm” value (Nilaparvata lugens; in vivo) was 100% and the “Pseudaletia separate Walker Mortality (%) 500 ppm” value ([1]; in vivo) was 100%. The “Plutella xylostella Mortality (%) 500 ppm” value (Plutella xylostella; in vivo) was 100%.

`CCN(Cc1ccc(Cl)nc1)C(=N\C)/C(=C\c1ccc[nH]1)[N+](=O)[O-]` [Compound 160, N-((6-chloropyridin-3-yl)methyl)-N-ethyl-N′-methyl-2-nitro-3-(1H-pyrrol-2-yl) acrylamidine] was tested, and the mortality at 500 ppm (Aphis craccivoral; Aphis, 500 ppm, immersion 5 seconds, counted after 24 hours, read-out: Aphis craccivoral Mortality (%) 500 ppm) was 56%, the mortality at 500 ppm (Nilaparvata lugens; Nilaparvata lugens, 500 ppm, spraying, counted after 24 hours, read-out: Nilaparvata lugens Mortality (%) 500 ppm) was 54% and the mortality at 500 ppm ([1]; Zea mays, foliar, 500 ppm, dipped maize leaves fed, counted after 24 hours, read-out: Pseudaletia separate Walker Mortality (%) 500 ppm) was 64%. For the same molecule, the mortality at 500 ppm (Plutella xylostella; Plutella xylostella, 500 ppm, dipped cabbage leaves fed, counted after 24 hours, read-out: Plutella xylostella Mortality (%) 500 ppm) was 100%.

`O=[N+]([O-])C(=Cc1ccc([N+](=O)[O-])o1)C1=NCCCN1Cc1ccc(Cl)nc1` [Compound 48] was tested, and the “Aphis craccivoral Mortality (%) 500 ppm” value (Aphis craccivoral; in vivo) was 100%, the “Nilaparvata lugens Mortality (%) 500 ppm” value (Nilaparvata lugens; in vivo) was 100% and the “Pseudaletia separate Walker Mortality (%) 500 ppm” value ([1]; in vivo) was 100%. The “Plutella xylostella Mortality (%) 500 ppm” value (Plutella xylostella; in vivo) was 100%.

For `O=[N+]([O-])C(=Cc1ccc([N+](=O)[O-])o1)C1=NCCN1CC1CCOC1` (stereo not drawn) [Compound 93], the “Aphis craccivoral Mortality (%) 500 ppm” value (Aphis craccivoral; in vivo) was 78%, the “Nilaparvata lugens Mortality (%) 500 ppm” value (Nilaparvata lugens; in vivo) was 87% and the “Pseudaletia separate Walker Mortality (%) 500 ppm” value ([1]; in vivo) was 100%. For the same molecule, the “Plutella xylostella Mortality (%) 500 ppm” value (Plutella xylostella; in vivo) was 96%.

`C[N+]1=C(C(=Cc2ccc(CO)s2)[N+](=O)[O-])N(Cc2ccc(Cl)nc2)CC1.[Cl-]` [Compound 273] was tested, and the “Aphis craccivoral Mortality (%) 500 ppm” value (Aphis craccivoral; in vivo) was 100%, the “Nilaparvata lugens Mortality (%) 500 ppm” value (Nilaparvata lugens; in vivo) was 100% and the “Pseudaletia separate Walker Mortality (%) 500 ppm” value ([1]; in vivo) was 100%. For the same molecule, the “Plutella xylostella Mortality (%) 500 ppm” value (Plutella xylostella; in vivo) was 100%.

`C[N+]1=C(C(=Cc2ccc(Cl)s2)[N+](=O)[O-])N(Cc2ccc(Cl)nc2)CC1.[Cl-]` [Compound 262] was tested, and the “Aphis craccivoral Mortality (%) 500 ppm” value (Aphis craccivoral; in vivo) was 100%, the “Nilaparvata lugens Mortality (%) 500 ppm” value (Nilaparvata lugens; in vivo) was 100% and the “Pseudaletia separate Walker Mortality (%) 500 ppm” value ([1]; in vivo) was 100%. For the same molecule, the “Plutella xylostella Mortality (%) 500 ppm” value (Plutella xylostella; in vivo) was 100%.

For `O=[N+]([O-])C(=Cc1ccc(Br)o1)C1=NCCN1Cc1cnc(Cl)s1` [Compound 72], the “Aphis craccivoral Mortality (%) 500 ppm” value (Aphis craccivoral; in vivo) was 100%, the “Nilaparvata lugens Mortality (%) 500 ppm” value (Nilaparvata lugens; in vivo) was 100% and the “Pseudaletia separate Walker Mortality (%) 500 ppm” value ([1]; in vivo) was 100%. The “Plutella xylostella Mortality (%) 500 ppm” value (Plutella xylostella; in vivo) was 100%.

With `C[N+]1=C(C(=Cc2ccoc2)[N+](=O)[O-])N(Cc2cnc(Cl)s2)CC1.[Cl-]` [Compound 276] the “Aphis craccivoral Mortality (%) 500 ppm” value (Aphis craccivoral; in vivo) was 100%, the “Nilaparvata lugens Mortality (%) 500 ppm” value (Nilaparvata lugens; in vivo) was 100% and the “Pseudaletia separate Walker Mortality (%) 500 ppm” value ([1]; in vivo) was 100%. For the same molecule, the “Plutella xylostella Mortality (%) 500 ppm” value (Plutella xylostella; in vivo) was 100%.

With `O=[N+]([O-])C(=Cc1cc2ccccc2[nH]1)C1=NCCN1Cc1ccc(Cl)nc1` [Compound 43] the “Aphis craccivoral Mortality (%) 500 ppm” value (Aphis craccivoral; in vivo) was 76%, the “Nilaparvata lugens Mortality (%) 500 ppm” value (Nilaparvata lugens; in vivo) was 90% and the “Pseudaletia separate Walker Mortality (%) 500 ppm” value ([1]; in vivo) was 95%. For the same molecule, the “Plutella xylostella Mortality (%) 500 ppm” value (Plutella xylostella; in vivo) was 100%.

With `O=[N+]([O-])C(=Cc1ccoc1)C1=NCCN1CC1CCOC1` (stereo not drawn) [Compound 92] the “Aphis craccivoral Mortality (%) 500 ppm” value (Aphis craccivoral; in vivo) was 80%, the “Nilaparvata lugens Mortality (%) 500 ppm” value (Nilaparvata lugens; in vivo) was 100% and the “Pseudaletia separate Walker Mortality (%) 500 ppm” value ([1]; in vivo) was 100%. For the same molecule, the “Plutella xylostella Mortality (%) 500 ppm” value (Plutella xylostella; in vivo) was 100%.

For `C[N+]1=C(C(=Cc2oc(Br)cc2Br)[N+](=O)[O-])N(Cc2ccc(Cl)nc2)CC1.[Cl-]` [Compound 254], the “Aphis craccivoral Mortality (%) 500 ppm” value (Aphis craccivoral; in vivo) was 100%, the “Nilaparvata lugens Mortality (%) 500 ppm” value (Nilaparvata lugens; in vivo) was 100% and the “Pseudaletia separate Walker Mortality (%) 500 ppm” value ([1]; in vivo) was 100%. The “Plutella xylostella Mortality (%) 500 ppm” value (Plutella xylostella; in vivo) was 100%.

For `C[N+]1=C(C(=Cc2cc(Cl)cs2)[N+](=O)[O-])N(Cc2ccc(Cl)nc2)CC1.[Cl-]` [Compound 264], the “Aphis craccivoral Mortality (%) 500 ppm” value (Aphis craccivoral; in vivo) was 100%, the “Nilaparvata lugens Mortality (%) 500 ppm” value (Nilaparvata lugens; in vivo) was 100% and the “Pseudaletia separate Walker Mortality (%) 500 ppm” value ([1]; in vivo) was 100%. For the same molecule, the “Plutella xylostella Mortality (%) 500 ppm” value (Plutella xylostella; in vivo) was 100%.

In the case of `O=[N+]([O-])C(=Cc1cc(Br)co1)C1=NCCN1Cc1ccc(Cl)nc1` [Compound 7], the “Aphis craccivoral Mortality (%) 500 ppm” value (Aphis craccivoral; 500 ppm, immersion method) is reported as 100%, the “Nilaparvata lugens Mortality (%) 500 ppm” value (Nilaparvata lugens; 500 ppm, spraying method, counted after 24 hours) is reported as 100% and the “Pseudaletia separate Walker Mortality (%) 500 ppm” value ([1]; 500 ppm, leaf dipping and feeding, counted after 24 hours) is reported as 100%. For the same molecule, the “Plutella xylostella Mortality (%) 500 ppm” value (Plutella xylostella; 500 ppm, feeding dipped leaves, counted after 24 hours) was 100%.

In the case of `CC[N+]1=C(C(=Cc2ccc(Cl)o2)[N+](=O)[O-])N(Cc2ccc(Cl)nc2)CC1.[Cl-]` [Compound 288], the “Aphis craccivoral Mortality (%) 500 ppm” value (Aphis craccivoral; in vivo) is reported as 100%, the “Nilaparvata lugens Mortality (%) 500 ppm” value (Nilaparvata lugens; in vivo) is reported as 100% and the “Pseudaletia separate Walker Mortality (%) 500 ppm” value ([1]; in vivo) is reported as 100%. For the same molecule, the “Plutella xylostella Mortality (%) 500 ppm” value (Plutella xylostella; in vivo) was 100%.
